The record followed here is patent US11723889B2, “Amyloid fiber formation limiter or inhibitor” (Omoidesouzou Co., Ltd., priority 2014, dated 2023).

Holding throughout (format): in vivo, human
One test concerns cutaneous amyloidosis. Description: Oral tranilast treatment of patients with cutaneous amyloidosis / cutaneous lichen amyloidosis (Cases 1-3), clinical observation of skin symptoms. An excerpt:
1. Confirmation that the agent for suppressing or inhibiting an amyloid fibril formation of the present invention has a therapeutic effect against cutaneous amyloidosis.
patient one observed with symptoms of cutaneous amyloidosis specific pigment-associating invasion and itch in the upper back had been treated without tranilast for an initial duration of 4 years, however, no therapeutic effect was observed. Therefore, the treatment shifted to the use of tranilast. The above-mentioned patient was administered orally with a 100 mg capsule of tranilast (brand name: Rizaben, Kissei Pharmaceutical Co., Ltd.) three times a day. […] Worsening or relapse of rash was not observed at least 3 years afterwards.
Therefore, the treatment shifted to the use of tranilast. The above-mentioned patient was administered orally with a 100 mg capsule of tranilast (brand name: Rizaben, Kissei Pharmaceutical Co., Ltd.) three times a day. From day 16 (Jul. 16, 2014) (see FIG. 1B) after the start of oral administration on Jun. […] The degree of amelioration of rash increased day by day (see FIGS. 1C to 1E).
A patient observed with chronic eczema with rash along with strong itch in the upper back for several years started the treatment with tranilast. The patient was administered orally with a 100 mg capsule of tranilast (brand name: Rizaben, Kissei Pharmaceutical Co., Ltd.) three times a day. When the oral administration started on Jul. 29, 2014, amyloid deposited brown papule was densely lichenified (see FIG. 2A).

A further test concerns Alzheimer's disease. The experiment in a line: Oral tranilast in a patient with Alzheimer's disease (Case 5), testing methods for dementia HDS-R and MMSE. As for the experimental part:
2. Confirmation that the agent for suppressing or inhibiting an amyloid fibril formation of the present invention has a therapeutic effect against cerebral amyloidosis. Because it was shown that tranilast has the effect of suppressing amyloid fibril formation in the skin, whether dementia and Alzheimer's disease arising from amyloid fibril deposition in the brain could be ameliorated was studied. A patient with Alzheimer's disease (person) was administered orally with a 100 mg capsule of tranilast (brand name: Rizaben, Kissei Pharmaceutical Co., Ltd.) three times a day. About 5 months after the start of administration of tranilast on Oct.

Another test has as its system dementia. Description: Oral tranilast in a patient with dementia (Case 4), testing methods for dementia HDS-R and MMSE. As for the experimental part:
2. Confirmation that the agent for suppressing or inhibiting an amyloid fibril formation of the present invention has a therapeutic effect against cerebral amyloidosis. Because it was shown that tranilast has the effect of suppressing amyloid fibril formation in the skin, whether dementia and Alzheimer's disease arising from amyloid fibril deposition in the brain could be ameliorated was studied. A patient with dementia (patient two) was administered orally with a 100 mg capsule of tranilast (brand name: Rizaben, Kissei Pharmaceutical Co., Ltd.) three times a day.

Setting [1] is: Case 1, 100 mg capsule orally three times a day, within another 1 month (about 2 months after start).
Setting [2] is: 1 year and 4 months after start of administration (December 2013).

Structures are written as SMILES.

As for `COc1ccc(/C=C/C(=O)Nc2ccccc2C(=O)O)cc1OC` [tranilast, N-(3,4-dimethoxycinnamoyl)anthranilic acid], the pigmentation entry with cutaneous amyloidosis (Case 1, upper back, 100 mg capsule orally three times a day, about 1 month after start of oral administration) is listed as “started to thin”. In addition, the itch result in the test with cutaneous amyloidosis (setting [1]) is recorded as “reduced”. In addition, the rash result in the test with cutaneous amyloidosis (setting [1]) is “largely ameliorated”. The “worsening or relapse of rash” value in the test on cutaneous amyloidosis (Case 1, at least 3 years afterwards) is “not observed”. Besides, the “amyloid deposited brown papule” value in the test with cutaneous amyloidosis (Case 2, 100 mg capsule orally three times a day, day 151 after start of oral administration) is “almost disappeared”; in the test on cutaneous amyloidosis (Case 2, 100 mg capsule orally three times a day, from day 16 after start of oral administration), “thinned, decreased in size, and ameliorated clearly”. The “condition (papule almost disappeared) maintained until” value in the test with cutaneous amyloidosis (Case 2, day after start of oral administration) was at least 238 days. The “symptoms (densely lichenified amyloid deposited brown papule)” value with cutaneous amyloidosis (Case 3, upper back, 100 mg capsule orally three times a day, day 15 after start) was “improvement in the symptoms was observed”; in the test with cutaneous amyloidosis (Case 3, 100 mg capsule orally three times a day, day 29 after start), “clear improvement in the symptoms was observed”. The “improved condition maintained until” value in the test on cutaneous amyloidosis (Case 3, day after start of oral administration) is at least 89 days. The “effect on the symptoms of Alzheimer's type dementia by HDS-R and MMSE” value in the test with Alzheimer's disease (100 mg capsule orally three times a day, about 5 months after start) was “clear ameliorating effect”. Further, the “HDS-R Value” with Alzheimer's disease (about 5 months after start (Mar. 19, 2015), value at start of administration 9) worked out at 12; in the test with dementia (setting [2]), 20; in the test with dementia (5 months after start of administration (January 2013), 23 at 1 year and 5 months before start), 15. Moreover, the “MMSE Value” in the test with Alzheimer's disease (about 5 months after start (Mar. 19, 2015), value at start of administration 14) is 22; in the test with dementia (setting [2]), 25; in the test with dementia (5 months after start of administration (January 2013), 27 at 1 year and 5 months before, 28 at 3 years and 10 months before), 22. In the test with dementia (100 mg capsule orally three times a day, 1 year and 4 months after start), the “effect by two testing methods for dementia (HDS-R and MMSE)” value is on record as “clear ameliorating effect”.
